In US12605423B2, “Peptide inhibitors targeting methyltransfer mechanism of SARS-CoV-2” (United Arab Emirates University, priority 2021, dated 2026):
In brackets after ≈: the same amount, converted by molar mass. Entries after “also recorded” stand apart in the source; their conditions may differ.

What was measured:
[1] = tested on: IL-6; format: cell-based; details: 10 μM peptide, versus PBS control; for IL-6 induction: NCIH1792 (H1792) human lung cells
[2] = in vitro; details: human, Cytotoxic Concentration (CC50), Caco-2 cells

With “YGRKKRRQRRRGSG [TAT sequence, reference compound]” the “IL-6 induction” value [1] was “no increase in IL-6”.
For CC[C@H](C)[C@H](NC(=O)[C@H](Cc1c[nH]cn1)NC(=O)[C@H](CS)NC(=O)[C@H](CCCNC(=N)N)NC(=O)[C@H](CS)NC(=O)[C@H](Cc1ccc(O)cc1)NC(=O)[C@H](CC(C)C)NC(=O)[C@H](CS)NC(=O)[C@H](CS)NC(=O)[C@H](CO)NC(=O)[C@H](C)NC(=O)CNC(=O)CNC(=O)[C@H](Cc1ccccc1)NC(=O)CNC(=O)[C@H](CO)NC(=O)CNC(=O)[C@H](CCCNC(=N)N)NC(=O)[C@H](CCCNC(=N)N)NC(=O)[C@H](CCCNC(=N)N)NC(=O)[C@H](CCC(N)=O)NC(=O)[C@H](CCCNC(=N)N)NC(=O)[C@H](CCCNC(=N)N)NC(=O)[C@H](CCCCN)NC(=O)[C@H](CCCCN)NC(=O)[C@H](CCCNC(=N)N)NC(=O)CNC(=O)[C@H](Cc1ccc(O)cc1)NC(C)=O)C(=O)N[C@@H](CC(=O)O)C(=O)N[C@@H](Cc1c[nH]cn1)C(=O)N1CCC[C@H]1C(=O)N[C@@H](CC(N)=O)C(=O)N1CCC[C@H]1C(=O)N[C@@H](CCCCN)C(=O)NCC(=O)N[C@@H](Cc1ccccc1)C(=O)N[C@@H](CS)C(=O)N[C@@H](CC(=O)O)C(=O)N[C@@H](CC(C)C)C(=O)N[C@@H](CCCCN)C(=O)NCC(=O)N[C@@H](CCCCN)C(=O)N[C@@H](Cc1ccc(O)cc1)C(N)=O [Peptide P1], the CC50 [2] was 11 µg/mL (≈ 2.19 µM), the “stimulation of the intrinsic secretion of IL-6” value ([1]; NCIH1792 (H1792) cells) was “more than 4 fold” and the “IL-6 induction” value [1] was “strongly increased IL-6 secretion; also recorded: profound induction of IL-6 secretion”.
